In publication PMC12664589 (Journal of Structural Biology: X, 2025):
Read-outs that look alike come from different tables or passages of the source.

Biological target: CpNce103p (Candida parapsilosis, UniProt G8B6R8)
Assay: biochemical
Type: biochemical

SMILES	Ki [µM]	Ki (pH 7.5, read-out: Ki) [µM]
NCc1ccc(S(N)(=O)=O)cc1 [Compound 2, 4-(aminomethyl)benzenesulfonamide]	3170	–
O=[N+]([O-])c1ccccc1S(=O)(=O)Cl [Compound 3, 2-Nitrobenzenesulfonyl chloride]	869	–
C#CCCS(N)(=O)=O [Compound 4, but-3-yne-1-sulfonamide]	933	–
NS(=O)(=O)c1ccccc1 [Compound 5, Benzenesulfonamide]	922	–
NN=C(c1ccccc1)c1ccccc1 [Compound 7, Benzophenone hydrazone]	302	–
NS(N)(=O)=O [Compound 8, Sulfamide]	–	1600
Nc1ccc(S(N)(=O)=O)cc1 [Compound 9, Sulfanilamide]	825	–
[N-]=[N+]=NCC(=O)NCCc1ccc(S(N)(=O)=O)cc1 [Compound 10, 2-azido-N-(4-sulfamoylphenethyl)acetamide]	1510	–
NS(=O)(=O)c1ccc([N+](=O)[O-])cc1 [Compound 13, 4-Nitrobenzenesulfonamide]	188	–
NS(=O)(=O)c1cc(C(=O)O)c(NCc2ccccc2)cc1Cl [Compound 14, 2-(benzylamino)-4-chloro-5-sulfamoylbenzoic acid]	377	–
N[C@@H](Cc1c[nH]c2ccccc12)C(=O)O [Compound 15, L-Tryptophan]	842	–
NS(=O)(=O)C(F)(F)F [Compound 16, Trifluoromethanesulfonamide]	2.2	–
